Measurements published in US4308396A, “Thromboxane A2 analogues” (priority 1979, dated 1981).
Read-outs that look alike come from different tables or passages of the source.

Key:
human platelets [1] = assay: Platelet aggregation in citrated human platelet-rich plasma; assay type: cell-based
Procedure: (§1) Platelet aggregation was studied in an aggregometer (Chronolog Corp., Phila., PA) using 0.5 ml citrated human platelet-rich plasma at 35° C. One minute after addition of analogue (up to 2 μl of a 25 mM solution in ethanol) aggregation was initiated by addition of sodium arachidonate (0.3-0.5 mM), ADP (2 μM) collagen (1 μg/ml), epinephrine (50 μM), 9,11-azo-PGH2, (0.1-0.6 μM), 9,11-methanoepoxy-PGH2, (0.3-0.6 μM), or 9,11-epoxy methano-PGH2 (1-3 μM). The analogues were also tested for their effects on the inhibition of ADP-induced aggregation by 2 nM prostacyclin or 20 nM prostaglandin D2.

cat coronary arteries = assay: Cat coronary artery constriction (perfused right coronary artery, constriction induced by endoperoxide analogues); assay type: cell-based; conditions: for inhibition at 0.1 µM: analogue 100 nM
Procedure: Thromboxane A2 analogues (up to 4 μl of a 2.5 mM solution in ethanol) were tested for their effects on cat coronary arteries continuously prefused with 10 ml Krebs-Henseleit solution as described below.
Cats of either sex (2.5-3.5 kg) were anesthetized with sodium pentobarbital (30 mg/kg) given intravenously. Hearts were reapidly excised and placed in oxygenated (95% O2 +5% CO2) ice-cold Krebs-Henseleit (K-H) solution of the following millimolar composition: NaCl, 118; KCl, 4.75; CaCl2.H2 O, 2.54; KH2 PO4, 1.19; MgSO4.7H2 O, 1.19; NaHCO3, 12.5; glucose, 10.00. A 20-gauge stainless steel cannula was inserted into the right coronary artery via the coronary ostium. Distal to the cannula, approximately 1 cm of coronary artery was dissected free of surrounding tissue. The section of right coronary artery with the cannula in place was excised from the heart and immediately transferred to a constant flow perfusion apparatus.
(§2) The perfusion apparatus consists of a reservoir containing 20 ml of warm (37° C.) oxygenated (95% O2 +5% CO2) K-H solution which bathes the coronary artery and serves as recirculating perfusate. An increase in perfusion pressure indicates vasoconstriction, whereas a decrease in perfusion pressure signifies vasodilation. Following an initial 1 hr. equilibrium period, vascular responsiveness was established by adding 25 mM KCl. After washing with fresh K-H solution for 20-30 minutes, the preparation achieved a relatively constant low basal tone. Basal perfusion pressure averaged 50±2.5 mm Hg. Fresh K-H dilutions of stock thromboxane analog concentrations were added to the perfusate reservoir in 0.1-0.2 ml volumes. Changes in perfusion pressure in response to thromboxane analogue addition generally plateaus within 5 minutes of administration. Constriction of the arteries was induced by addition of 15 or 30 nM 9,11-azo-prostaglandinendoperoxide (azo-PGH2), or 1 μM 9,11-methanoepoxy-PGH2. These compounds and their effects are described in the following references: Corey et al, PNAS, U.S.A. 72, 3355 (1975); Bundy, G. L., Tetr.Lett, 1957 (1975); Malmsten, C., Life Sci, 18, 169 (1976) and Smith, J. B., et al, in Platelets and Thrombosis, Ed. by Mills, D.C.B. et al, Academic Press, London/N.Y. 1977, pp 83-95. The effect of thromboxane analogues on the release of cathepsin D from the cat liver large granule fraction was determined as described in Lefer, A. M. et al, Science 200, 52 (1978). The effect of thromboxane analogues on the release of cathepsin D from the cat liver large granule fraction was determined as described in Lefer, A. M. et al, Science 200, 52 (1978).

cat liver lysosomes = assay: Release of cathepsin D from cat liver large granule fraction (lysosome stabilization); assay type: cell-based; conditions: 1 μM
Procedure: as §2, with “These compounds and their effects are described in the following references: Corey et al, PNAS, U.S.A. 72, 3355 (1975); Bundy, G. L., Tetr.Lett, 1957 (1975); Malmsten, C., Life Sci, 18, 169 (1976) and Smith, J. B., et al, in Platelets and Thrombosis, Ed. by Mills, D.C.B. et al, Academic Press, London/N.Y. 1977, pp 83-95.” left out, “(1978).” for “(1978). The effect of thromboxane analogues on the release of cathepsin D from the cat liver large granule fraction was determined as described in Lefer, A. M. et al, Science 200, 52 (1978).”

thromboxane synthetase [2] = molecular target: T1, thromboxane synthetase (Oryctolagus cuniculus, UniProt G1TAZ9); assay: Thromboxane synthesis from 1-14C-arachidonic acid by washed rabbit platelets; assay type: cell-based
T1 sequence (G1TAZ9 1-530): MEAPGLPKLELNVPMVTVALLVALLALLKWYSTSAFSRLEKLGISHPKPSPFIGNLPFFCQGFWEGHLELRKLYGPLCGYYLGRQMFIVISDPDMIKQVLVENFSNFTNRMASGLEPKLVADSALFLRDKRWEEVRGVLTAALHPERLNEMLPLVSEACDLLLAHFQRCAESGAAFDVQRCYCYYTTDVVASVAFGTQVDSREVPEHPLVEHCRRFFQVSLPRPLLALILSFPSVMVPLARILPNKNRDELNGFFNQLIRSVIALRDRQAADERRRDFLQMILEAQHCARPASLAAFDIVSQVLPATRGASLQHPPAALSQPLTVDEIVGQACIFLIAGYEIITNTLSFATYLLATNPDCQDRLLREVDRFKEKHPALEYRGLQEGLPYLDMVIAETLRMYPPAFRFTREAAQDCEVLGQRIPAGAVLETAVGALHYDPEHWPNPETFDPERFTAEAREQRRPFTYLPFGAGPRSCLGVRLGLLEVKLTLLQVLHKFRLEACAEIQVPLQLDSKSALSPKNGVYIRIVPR
Procedure: (§3) To study the effects of analogues on thromboxane synthesis, rabbit platelets were washed free of plasma, resuspended in buffered saline solution and incubated at 37° C. for 5 minutes with analogues at either 10 μM or 100 μM. Radioactive 1-^14 C-arachidonic acid (0.5 μCi, SA 50 Ci/mol, New England Nuclear, Boston, Mass.) was added and incubation was continued for 15 minutes, lipids were extracted by the method of Folch, J. Biol. Chem. 226, 497 (1957), and subjected to thin layer chromatography. In additional experiments, human platelet-rich plasma was incubated at 37° C. in the aggregometer for 1 minute with analogues. Sodium arachidonate (0.4 mM) was added and incubation was continued for 5 minutes. The samples were decanted into one-tenth vol. 100 mM EDTA, centrifuged for 2 minutes at 15,000 g, and thromboxane B2 in the supernatant was determined by radioimmunoassay.

thromboxane synthetase [3] = assay: Thromboxane B2 formation in human platelet-rich plasma (radioimmunoassay); assay type: cell-based; conditions: 50 μM
Procedure: as §3

Prostacyclin Synthetase = assay: Prostacyclin synthetase, sheep vesicular glands, 1-14C-arachidonic acid as substrate; assay type: biochemical; conditions: 100 μM; Table 1
Procedure: The effects of analogues on prostacyclin synthetase were determined using sheep vesicular glands as the enzyme source and 1-^14 C-arachidonic acid as substrate essentially as described by Cottee, F. et al, in Prostaglandins, 14, 413 (1978).

human platelets [4] = assay: Effect on the inhibition of ADP-induced platelet aggregation by prostacyclin or prostaglandin D2; assay type: cell-based
Procedure: as §1

Thromboxane Synthetase [5] = assay: Thromboxane synthetase inhibition (Table 1); assay type: biochemical; conditions: read-out: Inhibits Thromboxane Synthetase, ID50
Procedure: as §3

cyclooxygenase = assay: Effect on cyclooxygenase, washed rabbit platelets; assay type: cell-based; conditions: inferred from prostaglandin increases
Procedure: as §3

blood platelets = conditions: cited from earlier work; for effect on platelet aggregation: Gorman et al, Fitzpatrick et al
[6] = system: smooth muscle, blood vessels; conditions: cited from earlier work
[7] = cited from earlier work

CCCCCC(O)C=CC1CC2CC(C1CC=CCCCC(=O)O)C2(C)C (single isomer, unassigned) [16R epimer of the analogue III (R^1 =R^2 =--OH), Pinane Thromboxane A2, free acid]
effectiveness as a prostaglandin endoperoxide antagonist, relative to the 16S epimer (human platelets [1]; compared with 16S epimer): approximately ten times less effective

CCCCCC(O)C=CC1CC2CC(C1CC=CCCCC(=O)O)C2(C)C (single isomer, unassigned) [III (R^1 =R^2 =OH, 16S), Pinane Thromboxane A2, free acid]
IC50 (cat coronary arteries; Felis catus, Table 1, read-out: Inhibits Coronary Artery Contraction by Prostaglandin Endoperoxide Analogues, ID50): 100 nM | inhibition at 0.1 µM (cat coronary arteries; Felis catus, read-out: reduction of constriction induced by 15 nM 9,11-azo-PGH2): 73% | inhibition at 0.1 µM (cat coronary arteries; Felis catus, read-out: reduction of constriction induced by 30 nM 9,11-azo-PGH2): 50% | constriction induced by 30 nM 9,11-azo-PGH2 (cat coronary arteries; analogue 1 μm): abolished | inhibition of the release of cathepsin D from cat liver lysosomes (cat liver lysosomes; 4 experiments): significant inhibition (p<0.005) | Stabilizes Lysosomes (cat liver lysosomes; Table 1): Stabilizes Lysosomes | platelet aggregation induced by arachidonic acid (human platelets [1]; 10 μM): abolished | platelet aggregation induced by collagen (human platelets [1]; 10 μM): partially inhibited | primary aggregation induced by ADP (human platelets [1]; 10 μM): did not inhibit | primary aggregation induced by epinephrine (human platelets [1]; 10 μM): did not inhibit | second wave of aggregation induced by ADP (human platelets [1]; 10 μM): abolished | second wave of aggregation induced by epinephrine (human platelets [1]; 10 μM): abolished | arachidonic acid-induced aggregation in human platelet-rich plasma (human platelets [1]; 50 μM): abolished | aggregation induced by 9,11-azo-PGH2 (human platelets [1]; 1-15 μM, dose-dependent): inhibited | aggregation induced by 9,11-epoxymethano-PGH2 (human platelets [1]; 1-15 μM, dose-dependent): inhibited | aggregation induced by 9,11-methanoepoxy-PGH2 (human platelets [1]; 1-15 μM, dose-dependent): inhibited | IC50 (human platelets [1]; Homo sapiens, Platelet, Table 1, read-out: Inhibits Aggregation by Prostaglandin Endoperoxide Analogues, ID50): 2000 nM | inhibition at 10 µM (thromboxane synthetase [2]; 10 μM, read-out: inhibition of thromboxane B2 formation from 1-14C-arachidonic acid): 23% | inhibition at 100 µM (thromboxane synthetase [2]; 100 μM, read-out: inhibition of thromboxane B2 formation from 1-14C-arachidonic acid): 83% | radioactive prostaglandins E2, D2 and F2 α (thromboxane synthetase [2]; with thromboxane B2 inhibition): corresponding increases | reduction of thromboxane B2 formation in human platelet-rich plasma (thromboxane synthetase [3]): 50% | effect on Prostacyclin Synthetase (Prostacyclin Synthetase): no effect | effect on the inhibition of aggregation by prostaglandin D2 (human platelets [4]; 10 μM): nor did it affect | effect on the Inhibition of Platelet Aggregation by Prostacyclin (human platelets [4]; Table 1): no effect | effect on the Inhibition of Platelet Aggregation by Prostaglandin D2 (human platelets [4]; Table 1): no effect | IC50 (Thromboxane Synthetase [5]): 50000 nM | effect on cyclooxygenase (cyclooxygenase): not on cyclooxygenase

CCCCCC(O)C=CC1C2CC(N=N2)C1CC=CCCCC(=O)O (stereo not shown) [9,11-azo-PGH2, 9, 11-azo prostaglandin endoperoxide, reference compound]
Mean constriction at 15 nM 9,11-azo-PGH2 (cat coronary arteries; 15 nM, three experiments): 32 mm Hg | Mean constriction at 30 nM 9,11-azo-PGH2 (cat coronary arteries; 30 nM, three experiments): 53 mm Hg | effect on platelet aggregation (blood platelets): has aggregating activity

CCCCCCC=CC1C2CC(N=N2)C1CC=CCCCC(=O)O (stereo not shown) [15-deoxy-9,11-azo-PGH2]
effect on platelet aggregation (blood platelets): inhibits platelet aggregation

CCCCCC/C=C/C1C2CC(ON2)C1C/C=C\CCCC(=O)O (stereo not shown) [15-deoxy-9,11-epoxyimino-PGH2]
effect on platelet aggregation (blood platelets): inhibits platelet aggregation

CCCCCC(O)C=CC1C(O)CC2OC(=CCCCC(=O)O)CC21 (stereo not drawn) [Prostacyclin, 6,9α-oxido-11α, 15α-dihydroxyprosta (Z) 5, E(13)-dienoic acid]
effect on platelet aggregates after they have formed (blood platelets): destroys platelet aggregates after they have formed | inhibition of blood platelet aggregation (blood platelets; compared with all prostaglandins discovered to date): most potent inhibitor of blood platelet aggregation | dilation of blood vessels [6]: powerful action as a dilator of blood vessels | half-life under physiological conditions ([7]; pH 7.4): about 2 minutes

CCCCC[C@H](O)/C=C/[C@H]1O[C@H]2C[C@H](O2)[C@@H]1C/C=C\CCCC(=O)O [TA2, thromboxane A2]
thrombotic properties (blood platelets): potent thrombotic | smooth muscle constricting properties [6]: smooth muscle constricting | half-life under physiological conditions ([7]; pH 7.4 and 37° C.): 30 seconds
